Our source for the inhibition, IC50 and solubility values is patent US8686022B2, “7-(piperazine-1-ymethyl)-1H-indole-2-carboxylic acid (phenyl)-amide derivatives and allied compounds as p38 MAP kinase inhibitors for the treatment of respiratory diseases” (Boehringer Ingelheim International GmbH, priority 2008, dated 2014).

Series [1] concerns the target p38 MAP-kinase (Homo sapiens, UniProt Q16539). Kind of series: p38 MAP-kinase enzymatic assay (phosphorylation of GST-tagged ATF2, chemoluminescence). It counts as biochemical. The following applies: inhibitor concentration 1 μM; activated p38 MAP-kinase 1 nM; ATP 100 μM; read-out: p38 (% Inh @ 1 μM). As for the experimental part: In this, the amount of a substrate phosphorylated by the kinase is quantified. The test is carried out as follows:
The kinase reaction is carried out in the presence of HEPES (20 mM, pH 7), MgCl2 (10 mM), DTT (1 mM) and TWEEN20 (0.01%). First, dimethylsulphoxide or inhibitor (final concentration: 1 μM) dissolved in dimethylsulphoxide are placed in a reaction vessel. Then the activated p38 MAP-kinase (final concentration 1 nM) is added and the mixture is incubated for 4 h at ambient temperature. Then a mixture of substrate (GST-tagged ATF2) and ATP is added and everything is incubated together for a further hour (final concentration ATP: 100 μM; final concentration ATF2: 10 nM).
The concentration of phosphorylated ATF2 is quantified by chemoluminescence-induced light emission. For this, a glutathione donor bead (final concentration: 5 μg/ml) which binds to the gluthathione on the ATF2 and phospho-ATF2 antibodies are added to the reaction mixture (final concentration: 3 nM; this binds the phosphate group added by the kinase reaction) to which a Protein A Acceptor Bead (final concentration: 5 μg/ml) binds. These components are dissolved in a buffer which contains 20 mM HEPES pH 7.0, 200 mM NaCL, 80 mM EDTA as well as 0.3% BSA. This reaction mixture is incubated in the dark for 1 hour at ambient temperature. When these beads come physically close, visible light is emitted which is measured in a photometer at 520-620 nm.
To determine the inhibitory activity of the compounds according to the invention a calculation is made to determine the percentage by which the kinase activity is inhibited at a fixed inhibitor concentration of 1 μM. The maximum activity is determined by non-inhibited kinase. The minimum activity or nonspecific background activity is determined using a reaction mixture without kinase.
Table 2 summarises the degree of inhibition of the enzyme p38 MAP-kinase—as described hereinbefore—mediated by the compounds according to the invention detailed in the section “Preparation of the final compounds”.

Series [2] has as its target cytochrome P450 2C9 (Homo sapiens, UniProt P11712). As to the kind of experiment: Determining the cyp2C9 activity (O-demethylation of [O-methyl-14C]-naproxen). It counts as in vitro ADME. Conditions: human recombinant cytochrome P450 2C9; 37° C.; <0.4 μM when inhibition >50% at lowest concentration; read-out: CYP 2C9 IC50. On the procedure: Determining the cyp2C9 Activity:
The assay is carried out in a robot system with 96-well plates. The final incubation volume is 200 μl of TRIS-Puffer (0.1 M), magnesium chloride (5 mM), recombinant protein (40 pmol/ml), ^14C-labelled naproxen (80 μM) and the test compound in one of 4 concentrations (50 μM, 10 μM, 2 μM and 0.4 μM) as a duplicate in each case. After a short preincubation period the reactions are started by the addition of the cofactor (NADPH, 1 mM) and ended after 15 min by the addition of 50 μl of a 10% aqueous trichloroacetic acid solution. One aliquot of the incubate is transferred onto a 96-well solid phase extraction plate and extracted. The ^14C-formaldehyde formed during the reaction is not retained on the solid phase extraction plate and is thus separated from the unmetabolised substrate by washing the solid phase extraction plate with water. One aliquot of the eluate is transferred into a well plate suitable for liquid scintillation. […] The IC50 is determined by the least squares method using the following formula: control activity=(100% control activity/(1+(I/IC50)S))−B where I=Inhibitor concentration S=Pitch B=Background activity
When the inhibition of the reaction is >50% even at the lowest concentration of the test compound, the IC50 is given as <0.4 μM.

Series [3] in a line: Determining the solubility (saturated solution in McIlvaine buffer pH 7.4, UV spectroscopy). It counts as physicochemical. The following applies: pH 7.4, aqueous buffer, thermodynamic from solid, shaken 2 hours, 0.75 mg solid in 0.75 ml. As for the experimental part:
Determining the Solubility:
Saturated solutions are prepared in suitable well dishes by adding 0.75 ml of a McIlvaine buffer (pH 7.4) to the well in question containing 0.75 mg of solid of an active substance. The wells are shaken for 2 hours and then filtration is carried out through a suitable filter membrane (typically polytetrafluoroethylene with a pore size of 0.45 μm). Filter absorption is prevented by discarding the first few drops of filtrate. The amount of active substance dissolved is determined by UV spectroscopy.

In brackets after ≈: the same amount, converted by molar mass.

Sequence of p38 MAP-kinase (Q16539 whole entry): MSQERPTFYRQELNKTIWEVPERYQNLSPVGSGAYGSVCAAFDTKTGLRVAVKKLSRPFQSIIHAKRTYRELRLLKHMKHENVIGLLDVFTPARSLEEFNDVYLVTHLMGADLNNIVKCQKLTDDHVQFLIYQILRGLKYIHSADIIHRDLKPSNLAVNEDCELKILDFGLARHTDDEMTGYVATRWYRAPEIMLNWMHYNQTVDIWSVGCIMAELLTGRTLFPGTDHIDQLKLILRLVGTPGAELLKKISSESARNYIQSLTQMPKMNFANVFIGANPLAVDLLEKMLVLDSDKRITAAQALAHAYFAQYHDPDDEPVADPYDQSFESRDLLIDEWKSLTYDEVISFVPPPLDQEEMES
Sequence of cytochrome P450 2C9 (P11712 whole entry): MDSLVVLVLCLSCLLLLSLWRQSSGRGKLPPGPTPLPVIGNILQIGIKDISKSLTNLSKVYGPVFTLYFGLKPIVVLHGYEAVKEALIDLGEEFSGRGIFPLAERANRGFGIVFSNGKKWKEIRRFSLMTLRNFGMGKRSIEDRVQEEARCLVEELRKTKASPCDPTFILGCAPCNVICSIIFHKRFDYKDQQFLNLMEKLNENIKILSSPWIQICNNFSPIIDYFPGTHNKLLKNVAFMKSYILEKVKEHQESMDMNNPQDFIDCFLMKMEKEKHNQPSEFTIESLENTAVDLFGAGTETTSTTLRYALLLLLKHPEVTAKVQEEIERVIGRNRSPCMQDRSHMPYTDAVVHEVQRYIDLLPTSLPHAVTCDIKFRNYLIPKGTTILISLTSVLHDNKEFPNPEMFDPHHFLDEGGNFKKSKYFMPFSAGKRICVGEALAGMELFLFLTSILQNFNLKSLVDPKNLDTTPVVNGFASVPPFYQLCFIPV

`COc1c(NC(=O)c2cc3cccc(CN4CCCN(C(=O)[C@@H]5CCN(C)C5)CC4)c3n2C)cc(C(C)(C)C)cc1NS(C)(=O)=O` [5(2), (R)-1-methyl-7-[4-(1-methyl-pyrrolidine-3-carbonyl)-[1,4]diazepan-1-ylmethyl]-1H-indole-2-carboxylic acid-(5-tert-butyl-3-methanesulphonylamino-2-methoxy-phenyl)-amide]: the inhibition at 1 µM in series [1] worked out at 98%. Moreover, the IC50 in series [2] was determined as 0.99 µM. The amount in solution in series [3] (solubility at 2 h) came to 160 µg/mL (≈ 245 µM).
In the same order, the values of `COc1c(NC(=O)c2cc3cccc(CN4CCN(C(=O)CN5CC[C@@H](O)C5)CC4)c3n2C)cc(C(C)(C)C)cc1NS(C)(=O)=O` [6(1), (R)-7-{4-[2-(3-hydroxy-pyrrolidin-1-yl)-acetyl]-piperazin-1-ylmethyl}-1-methyl-1H-indole-2-carboxylic acid-(5-tert-butyl-3-methanesulphonylamino-2-methoxy-phenyl)-amide] are 99.2%, 0.47 µM and 47 µg/mL (≈ 71.8 µM).
In the same order, the values of `COc1c(NC(=O)c2cc3cccc(CN4CCN(C(=O)CN5CC[C@@H](N(C)C)C5)CC4)c3n2C)cc(C(C)(C)C)cc1NS(C)(=O)=O` [6(2), (R)-7-{4-[2-(3-dimethylamino-pyrrolidin-1-yl)-acetyl]-piperazin-1-ylmethyl}-1-methyl-1H-indole-2-carboxylic acid-(5-tert-butyl-3-methanesulphonylamino-2-methoxy-phenyl)-amide] are 98.9%, 0.7 µM and over 1000 µg/mL.
In the same order, the values of `COc1c(NC(=O)c2cc3cccc(CN4CCN(C(=O)CN5CC[C@H](N(C)C)C5)CC4)c3n2C)cc(C(C)(C)C)cc1NS(C)(=O)=O` [6(3), (S)-7-{4-[2-(3-dimethylamino-pyrrolidin-1-yl)-acetyl]-piperazin-1-ylmethyl}-1-methyl-1H-indole-2-carboxylic acid-(5-tert-butyl-3-methanesulphonylamino-2-methoxy-phenyl)-amide] are 98.5%, 2.93 µM and 910 µg/mL (≈ 1330 µM).
Take `COc1c(NC(=O)c2cc3cccc(CN4CCCN(C(=O)C5CCN(C)CC5)CC4)c3n2C)cc(C(C)(C)C)cc1NS(C)(=O)=O` [8(1), 1-methyl-7-[4-(1-methyl-piperidine-4-carbonyl)-[1,4]diazepan-1-ylmethyl]-1H-indole-2-carboxylic acid-(5-tert-butyl-3-methanesulphonylamino-2-methoxy-phenyl)-amide]: in series [1], the inhibition at 1 µM worked out at 98.1%. Also, in series [2], the half-maximal inhibitory concentration (IC50) stood at 6.48 µM. Further, the solubility at 2 h in series [3] came to 120 µg/mL (≈ 180 µM).
The like results for `COc1c(NC(=O)c2cc3cccc(CN4CCN(C(=O)[C@@H]5CCCN5C)CC4)c3n2C)cc(CC(C)C)cc1NS(C)(=O)=O` [8(2), (S)-1-methyl-7-[4-(1-methyl-pyrrolidine-2-carbonyl)-piperazin-1-ylmethyl]-1H-indole-2-carboxylic acid-(5-isobutyl-3-methanesulphonylamino-2-methoxy-phenyl)-amide] were, in that order, 99.5%, 5.77 µM and 120 µg/mL (≈ 188 µM).
The like results for `COc1c(CN(C(C)C)C(C)C)cc(C(C)(C)C)cc1NC(=O)c1cc2cccc(CN3CCN(C(=O)[C@@H]4CCCN4C)CC3)c2n1C` [9(1), (S)-1-methyl-7-[4-(1-methyl-pyrrolidine-2-carbonyl)-piperazin-1-ylmethyl]-1H-indole-2-carboxylic acid-{5-tert-butyl-3-[(diisopropylamino)-methyl]-2-methoxy-phenyl}-amide] were, in that order, 95.8%, 6.7 µM and 570 µg/mL (≈ 865 µM).
In the same order, the values of `CCN(CC)Cc1cc(C(C)(C)C)cc(NC(=O)c2cc3cccc(CN4CCN(C(=O)[C@@H]5CCCN5C)CC4)c3n2C)c1OC` [9(2), (S)-1-methyl-7-[4-(1-methyl-pyrrolidine-2-carbonyl)-piperazin-1-ylmethyl]-1H-indole-2-carboxylic acid-(5-tert-butyl-3-diethylaminomethyl-2-methoxy-phenyl)-amide] are 98.2%, 7.76 µM and 860 µg/mL (≈ 1360 µM).
Turning to `COc1c(CN2CCCC(N(C)C)C2)cc(C(C)(C)C)cc1NC(=O)c1cc2cccc(CN3CCN(C(=O)[C@@H]4CCCN4C)CC3)c2n1C` (stereo partly drawn) [9(3), 1-methyl-7-[4-((2S)-1-methyl-pyrrolidine-2-carbonyl)-piperazin-1-ylmethyl]-1H-indole-2-carboxylic acid-[5-tert-butyl-3-(3-dimethylamino-piperidin-1-ylmethyl)-2-methoxy-phenyl]-amide], the inhibition at 1 µM in series [1] was determined as 98.9%. Further, in series [2], the IC50 was determined as 6.84 µM. In series [3], this compound showed a solubility at 2 h of 700 µg/mL (≈ 1020 µM).
For the compound `CCN(CC)C1CCN(Cc2cc(C(C)(C)C)cc(NC(=O)c3cc4cccc(CN5CCN(C(=O)[C@@H]6CCCN6C)CC5)c4n3C)c2OC)C1` (stereo partly drawn) [9(4), 1-methyl-7-[4-((2S)-1-methyl-pyrrolidine-2-carbonyl)-piperazin-1-ylmethyl]-1H-indole-2-carboxylic acid-[5-tert-butyl-3-(3-diethylamino-pyrrolidin-1-ylmethyl)-2-methoxy-phenyl]-amide], the inhibition at 1 µM in series [1] came out at 98%. Besides, the IC50 in series [2] was determined as 8.11 µM. The amount in solution in series [3] (solubility at 2 h) came to 690 µg/mL (≈ 986 µM).
For `COc1c(CN2CCC(N(C)C)CC2)cc(C(C)(C)C)cc1NC(=O)c1cc2cccc(CN3CCN(C(=O)[C@@H]4CCCN4C)CC3)c2n1C` [9(5), (S)-1-methyl-7-[4-(1-methyl-pyrrolidine-2-carbonyl)-piperazin-1-ylmethyl]-1H-indole-2-carboxylic acid-[5-tert-butyl-3-(4-dimethylamino-piperidin-1-ylmethyl)-2-methoxy-phenyl]-amide], in series [1], the inhibition at 1 µM is 97.5%. The concentration for half-maximal inhibition (IC50) in series [2] is 6.88 µM. The compound further had a solubility at 2 h in series [3] of 490 µg/mL (≈ 714 µM).
The like results for `CCN(CC)C1CCN(Cc2cc(C(C)(C)C)cc(NC(=O)c3cc4cccc(CN5CCN(C(=O)[C@@H]6CCCN6C)CC5)c4n3C)c2OC)CC1` [9(6), (S)-1-methyl-7-[4-(1-methyl-pyrrolidine-2-carbonyl)-piperazin-1-ylmethyl]-1H-indole-2-carboxylic acid-[5-tert-butyl-3-(4-diethylamino-piperidin-1-ylmethyl)-2-methoxy-phenyl]-amide] were, in that order, 97.7%, 10.4 µM and 470 µg/mL (≈ 658 µM).
In the same order, the values of `COc1c(CN2CCN(C(C)C)CC2)cc(C(C)(C)C)cc1NC(=O)c1cc2cccc(CN3CCN(C(=O)[C@@H]4CCCN4C)CC3)c2n1C` [9(7), (S)-1-methyl-7-[4-(1-methyl-pyrrolidine-2-carbonyl)-piperazin-1-ylmethyl]-1H-indole-2-carboxylic acid-[5-tert-butyl-3-(4-isopropyl-piperazin-1-ylmethyl)-2-methoxy-phenyl]-amide] are 98.8%, 44.7 µM and 880 µg/mL (≈ 1280 µM).
The like results for `COc1c(NC(=O)c2cc3cccc(CN4CCN(C(=O)[C@@H]5CCCN5C)CC4)c3n2C)cc(C(C)(C)C)cc1C(=O)NC(C)C` [10(1), (S)-1-methyl-7-[4-(1-methyl-pyrrolidine-2-carbonyl)-piperazin-1-ylmethyl]-1H-indole-2-carboxylic acid-(5-tert-butyl-3-isopropylcarbamoyl-2-methoxy-phenyl)-amide] were, in that order, 99.1%, 1.29 µM and 380 µg/mL (≈ 602 µM).
